Measurements reported in patent publication US8168651B2, “Protein kinase modulators” (Cylene Pharmaceuticals, Inc., priority 2008, dated 2012).

Tests used:
recombinant human CK2 = recombinant human CK2 (Homo sapiens (Human), UniProt P68400); assay: CK2 assay (cell-free, 33P-ATP filter plate); type: biochemical; details: 500 nM compound, cell-free assay; read-out: CK2: % inh 500 nM
recombinant human PIM1 = recombinant human PIM1 (Homo sapiens (Human), UniProt P11309); assay: PIM-1 kinase activity in cell-free in vitro assay; type: biochemical; details: cell-free assay; for inhibition at 0.5 µM: 500 nM compound, read-out: PIM-1: % inh 500 nM
Chain of recombinant human PIM1 (P11309 whole entry): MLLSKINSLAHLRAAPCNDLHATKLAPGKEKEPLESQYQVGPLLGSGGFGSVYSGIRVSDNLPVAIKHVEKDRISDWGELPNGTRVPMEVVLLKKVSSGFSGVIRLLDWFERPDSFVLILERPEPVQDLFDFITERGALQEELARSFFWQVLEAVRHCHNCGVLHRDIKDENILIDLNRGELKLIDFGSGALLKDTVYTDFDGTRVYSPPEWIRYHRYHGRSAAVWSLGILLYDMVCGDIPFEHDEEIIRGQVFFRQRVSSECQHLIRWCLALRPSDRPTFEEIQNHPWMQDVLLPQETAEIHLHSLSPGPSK

MV-4-11 = assay: Cell proliferation modulatory activity, MV-4-11; type: cell-based; details: Homo sapiens, MV4-11; MV-4-11 cells
K-562 = assay: Cell proliferation modulatory activity, K-562; type: cell-based; details: Homo sapiens, K562; K-562 cells
[1] = tested on: HCT-116 human colorectal carcinoma cells; assay: Cell-proliferation assay using Alamar Blue dye; type: cell-based; details: Homo sapiens, HCT-116, second HCT-116 column (c8); read-out: HCT-116 (uM) cell proliferation modulatory activity;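 further: cells exposed to compound for about 4 days, then Alamar Blue added and dye fluorescence read after about 4 h, compared with medium-only control wells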

Chain of recombinant human CK2 (P68400 whole entry): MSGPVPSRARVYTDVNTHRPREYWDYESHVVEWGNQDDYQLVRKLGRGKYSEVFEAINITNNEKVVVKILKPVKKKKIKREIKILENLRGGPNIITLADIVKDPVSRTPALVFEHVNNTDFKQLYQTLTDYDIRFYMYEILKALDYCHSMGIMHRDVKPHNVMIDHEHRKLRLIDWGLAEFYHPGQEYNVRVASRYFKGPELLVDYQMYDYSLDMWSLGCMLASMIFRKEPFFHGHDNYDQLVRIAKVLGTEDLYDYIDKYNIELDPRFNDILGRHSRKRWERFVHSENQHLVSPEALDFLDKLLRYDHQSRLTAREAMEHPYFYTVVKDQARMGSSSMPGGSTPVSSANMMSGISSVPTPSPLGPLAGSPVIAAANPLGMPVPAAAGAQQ
Chain of recombinant human CK2 (P67870 whole entry partner): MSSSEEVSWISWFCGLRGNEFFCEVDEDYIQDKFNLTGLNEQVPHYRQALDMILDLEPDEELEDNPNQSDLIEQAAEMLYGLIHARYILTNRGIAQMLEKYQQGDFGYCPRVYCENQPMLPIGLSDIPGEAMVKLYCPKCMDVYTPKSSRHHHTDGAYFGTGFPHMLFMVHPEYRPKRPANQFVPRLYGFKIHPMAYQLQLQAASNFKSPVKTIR

Compound	inhibition at 0.5 µM (recombinant human CK2)	inhibition at 0.5 µM (recombinant human PIM1)	IC50 (MV-4-11)	IC50 (K-562)	IC50 [1]	IC50 (recombinant human PIM1)
COCCNC(=O)c1ccc2c(c1)nc(NCCN(C)C)c1ccsc12	-12.9%	-3.76%	> 10 µM	> 10 µM	> 10 µM	–
CN1CCCCC1CNc1nc2cc(-c3nnn[nH]3)ccc2c2sccc12 (stereo not shown)	32.8%	90.9%	> 10 µM	> 10 µM	> 10 µM	0.064 µM
N#Cc1ccc2c(c1)nc(Nc1cccc(C(F)(F)F)c1)c1cscc12	-2.65%	-33.2%	> 10 µM	> 10 µM	> 10 µM	–
Fc1ccc(Nc2nc3cc(-c4nnn[nH]4)ccc3c3cscc23)cc1Cl	51.1%	14.2%	5.71 µM	> 10 µM	> 10 µM	–
Fc1ccc(Nc2nc3cc(-c4nnn[nH]4)ccc3c3cscc23)cc1	37.6%	30.6%	5.47 µM	> 10 µM	> 10 µM	–
Clc1ccc(Nc2nc3cc(-c4nnn[nH]4)ccc3c3cscc23)cc1	39.5%	15.2%	6.44 µM	> 10 µM	> 10 µM	–
Fc1cc(Cl)cc(Nc2nc3cc(-c4nnn[nH]4)ccc3c3cscc23)c1	57.3%	11.4%	> 10 µM	> 10 µM	> 10 µM	–
Clc1cccc(Nc2nc3cc(-c4nnn[nH]4)ccc3c3cscc23)c1	63.3%	17.9%	> 10 µM	> 10 µM	> 10 µM	–
Fc1cccc(Nc2nc3cc(-c4nnn[nH]4)ccc3c3cscc23)c1	52.6%	14%	> 10 µM	> 10 µM	> 10 µM	–
Fc1cc(F)cc(Nc2nc3cc(-c4nnn[nH]4)ccc3c3cscc23)c1	52.6%	11.1%	> 10 µM	> 10 µM	> 10 µM	–
FC(F)(F)c1cccc(Nc2nc3cc(-c4nnn[nH]4)ccc3c3cscc23)c1	23.1%	-6.51%	> 10 µM	> 10 µM	> 10 µM	–
CCN1CCC[C@@H]1CNc1nc2cc(-c3nnn[nH]3)ccc2c2sccc12	78.1%	89.9%	> 10 µM	> 10 µM	> 10 µM	0.065 µM
CCN1CCC[C@H]1CNc1nc2cc(-c3nnn[nH]3)ccc2c2sccc12	59.8%	84.1%	> 10 µM	> 10 µM	> 10 µM	0.118 µM
CN(C)CCNc1nc2cc(-c3nnn[nH]3)ccc2c2sc(-c3ccccc3)cc12	0.269%	-14.8%	> 10 µM	> 10 µM	> 10 µM	–
Clc1cccc(Nc2nc3cc(-c4nnn[nH]4)ccc3c3ccsc23)c1	56.2%	31.9%	4.47 µM	> 10 µM	> 10 µM	–

More lines, now with the values ahead:

inhibition at 0.5 µM (recombinant human CK2)	inhibition at 0.5 µM (recombinant human PIM1)	IC50 (MV-4-11)	IC50 (K-562)	IC50 [1]	IC50 (recombinant human PIM1)	Compound
-0.336%	-26.7%	> 10 µM	> 10 µM	> 10 µM	–	N#Cc1ccc2c(c1)[nH]c(=O)c1cscc12
-6.52%	-20.3%	1.81 µM	> 10 µM	> 10 µM	–	N#Cc1ccc2c(c1)nc(Cl)c1cscc12
-9.4%	-32.8%	> 10 µM	> 10 µM	> 10 µM	–	N#Cc1ccc2c(c1)nc(Nc1cccc(Cl)c1)c1cscc12
9.21%	-6.77%	> 10 µM	> 10 µM	> 10 µM	–	N#Cc1ccc2c(c1)nc(Nc1ccc(F)cc1)c1cscc12
-20.1%	-28.6%	> 10 µM	8.04 µM	> 10 µM	–	N#Cc1ccc2c(c1)nc(Nc1cccc(F)c1)c1cscc12
-2.49%	-35.8%	> 10 µM	> 10 µM	> 10 µM	–	N#Cc1ccc2c(c1)nc(Nc1ccc(Cl)cc1)c1cscc12
-8.36%	-26.3%	> 10 µM	> 10 µM	> 10 µM	–	N#Cc1ccc2c(c1)nc(Nc1ccc(F)c(Cl)c1)c1cscc12
-11.5%	-23.9%	> 10 µM	> 10 µM	> 10 µM	–	N#Cc1ccc2c(c1)nc(Cl)c1sccc12
